Results as given in ChEMBL document CHEMBL3045802, “Synthesis and in vitro antitumor activity of new quinoline, pyrimido[4,5-b]quinoline, [1,2,3]triazino[4,5-b]quinoline, and [1,2,4]triazolo[2,3:3,4]pyrimido[6,5-b]quinoline analogs” (2013).

Legend:
Type in all cases: functional
K562 = test: Cytotoxicity against Homo sapiens (human) K562 cells assessed as growth inhibition at 10 uM after 48 hr by coulter counter analysis; details: K562, 48 h, read-out: GI
HL-60(TB) = test: Cytotoxicity against Homo sapiens (human) HL-60(TB) cells assessed as growth inhibition at 10 uM after 48 hr by coulter counter analysis; details: HL-60, 48 h, read-out: GI
CCRF-CEM = test: Cytotoxicity against Homo sapiens (human) CCRF-CEM cells assessed as growth inhibition at 10 uM after 48 hr by coulter counter analysis; details: read-out: GI
BT-549 = test: Cytotoxicity against Homo sapiens (human) BT549 cells assessed as growth inhibition at 10 uM after 48 hr by coulter counter analysis; details: BT-549, 48 h, read-out: GI
PC-3 = test: Cytotoxicity against Homo sapiens (human) PC3 cells assessed as growth inhibition at 10 uM after 48 hr by coulter counter analysis; details: PC-3, 48 h, read-out: GI
SNB-75 = test: Cytotoxicity against Homo sapiens (human) SNB75 cells assessed as growth inhibition at 10 uM after 48 hr by coulter counter analysis; details: SNB-75, 48 h, read-out: GI
COLO 205 = test: Cytotoxicity against Homo sapiens (human) COLO205 cells assessed as growth inhibition at 10 uM after 48 hr by coulter counter analysis; details: COLO 205, 48 h, read-out: GI
UACC-62 = test: Cytotoxicity against Homo sapiens (human) UACC62 cells assessed as growth inhibition at 10 uM after 48 hr by coulter counter analysis; details: UACC-62, 48 h, read-out: GI
OVCAR-5 = test: Cytotoxicity against Homo sapiens (human) OVCAR5 cells assessed as growth inhibition at 10 uM after 48 hr by coulter counter analysis; details: OVCAR-5, 48 h, read-out: GI
MDA-MB-435 = test: Cytotoxicity against Homo sapiens (human) MDA-MB-435 cells assessed as growth inhibition at 10 uM after 48 hr by coulter counter analysis; details: MDA-MB-435, 48 h, read-out: GI
MCF7 = test: Cytotoxicity against Homo sapiens (human) MCF7 cells assessed as growth inhibition at 10 uM after 48 hr by coulter counter analysis; details: MCF7, 48 h, read-out: GI
HOP-62 = test: Cytotoxicity against Homo sapiens (human) HOP62 cells assessed as growth inhibition at 10 uM after 48 hr by coulter counter analysis; details: HOP-62, 48 h, read-out: GI
RPMI-8226 = test: Cytotoxicity against Homo sapiens (human) RPMI8226 cells assessed as growth inhibition at 10 uM after 48 hr by coulter counter analysis; details: RPMI-8226, 48 h, read-out: GI
MDA-MB-468 = test: Cytotoxicity against Homo sapiens (human) MDA-MB-468 cells assessed as growth inhibition at 10 uM after 48 hr by coulter counter analysis; details: MDA-MB-468, 48 h, read-out: GI
NCI-H460 = test: Cytotoxicity against Homo sapiens (human) NCI-H460 cells assessed as growth inhibition at 10 uM after 48 hr by coulter counter analysis; details: NCI-H460, 48 h, read-out: GI
SK-MEL-5 = test: Cytotoxicity against Homo sapiens (human) SK-MEL-5 cells assessed as growth inhibition at 10 uM after 48 hr by coulter counter analysis; details: SK-MEL-5, 48 h, read-out: GI
T47D = test: Cytotoxicity against Homo sapiens (human) T47D cells assessed as growth inhibition at 10 uM after 48 hr by coulter counter analysis; details: read-out: GI
NCI-H522 = test: Cytotoxicity against Homo sapiens (human) NCI-H522 cells assessed as growth inhibition at 10 uM after 48 hr by coulter counter analysis; details: NCI-H522, 48 h, read-out: GI
HCT-15 = test: Cytotoxicity against Homo sapiens (human) HCT15 cells assessed as growth inhibition at 10 uM after 48 hr by coulter counter analysis; details: HCT-15, 48 h, read-out: GI
786-0 = test: Cytotoxicity against Homo sapiens (human) 786-0 cells assessed as growth inhibition at 10 uM after 48 hr by coulter counter analysis; details: 786-0, 48 h, read-out: GI
OVCAR-3 = test: Cytotoxicity against Homo sapiens (human) OVCAR3 cells assessed as growth inhibition at 10 uM after 48 hr by coulter counter analysis; details: OVCAR-3, 48 h, read-out: GI
SF-539 = test: Cytotoxicity against Homo sapiens (human) SF539 cells assessed as growth inhibition at 10 uM after 48 hr by coulter counter analysis; details: SF-539, 48 h, read-out: GI
SF-295 = test: Cytotoxicity against Homo sapiens (human) SF295 cells assessed as growth inhibition at 10 uM after 48 hr by coulter counter analysis; details: SF-295, 48 h, read-out: GI

## COc1ccc(C2C3=C(CCCC3)Nc3nn[nH]c(=O)c32)cc1OC (centres undefined)
K562
  inhibition of growth at 10 µM: < 10%
HL-60(TB)
  inhibition of growth at 10 µM: < 10%
CCRF-CEM
  inhibition of growth at 10 µM: < 10%
BT-549
  inhibition of growth at 10 µM: < 10%
PC-3
  inhibition of growth at 10 µM: 13.4%
SNB-75
  inhibition of growth at 10 µM: 28.3%
COLO 205
  inhibition of growth at 10 µM: 15.9%
UACC-62
  inhibition of growth at 10 µM: 14.3%
OVCAR-5
  inhibition of growth at 10 µM: 12.6%
MDA-MB-435
  inhibition of growth at 10 µM: < 10%
MCF7
  inhibition of growth at 10 µM: < 10%
HOP-62
  inhibition of growth at 10 µM: 15.7%
RPMI-8226
  inhibition of growth at 10 µM: < 10%
MDA-MB-468
  inhibition of growth at 10 µM: 21.1%
NCI-H460
  inhibition of growth at 10 µM: < 10%
SK-MEL-5
  inhibition of growth at 10 µM: 10.9%
T47D
  inhibition of growth at 10 µM: 21.1%
NCI-H522
  inhibition of growth at 10 µM: < 10%
HCT-15
  inhibition of growth at 10 µM: < 10%
786-0
  inhibition of growth at 10 µM: < 10%
OVCAR-3
  inhibition of growth at 10 µM: < 10%
SF-539
  inhibition of growth at 10 µM: < 10%
SF-295
  inhibition of growth at 10 µM: < 10%

## COc1ccc(C2C3=C(CCCC3)Nc3[nH]c(=S)nc(NC(N)=S)c32)cc1OC (centres undefined)
K562
  inhibition of growth at 10 µM: 17.6%
HL-60(TB)
  inhibition of growth at 10 µM: < 10%
CCRF-CEM
  inhibition of growth at 10 µM: < 10%
BT-549
  inhibition of growth at 10 µM: < 10%
PC-3
  inhibition of growth at 10 µM: 23.5%
SNB-75
  inhibition of growth at 10 µM: 20.3%
COLO 205
  inhibition of growth at 10 µM: 12.8%
UACC-62
  inhibition of growth at 10 µM: < 10%
OVCAR-5
  inhibition of growth at 10 µM: < 10%
MDA-MB-435
  inhibition of growth at 10 µM: 70.7%
MCF7
  inhibition of growth at 10 µM: < 10%
HOP-62
  inhibition of growth at 10 µM: 25.4%
RPMI-8226
  inhibition of growth at 10 µM: < 10%
MDA-MB-468
  inhibition of growth at 10 µM: 14.2%
NCI-H460
  inhibition of growth at 10 µM: < 10%
SK-MEL-5
  inhibition of growth at 10 µM: 25.5%
T47D
  inhibition of growth at 10 µM: 27.5%
NCI-H522
  inhibition of growth at 10 µM: 43.4%
HCT-15
  inhibition of growth at 10 µM: 10.2%
786-0
  inhibition of growth at 10 µM: < 10%
OVCAR-3
  inhibition of growth at 10 µM: < 10%
SF-539
  inhibition of growth at 10 µM: 21.1%
SF-295
  inhibition of growth at 10 µM: 14.4%

## COc1ccc(C2C3=C(CCCC3)Nc3nc(CC#N)[nH]c(=O)c32)cc1OC (centres undefined)
K562
  inhibition of growth at 10 µM: < 10%
HL-60(TB)
  inhibition of growth at 10 µM: < 10%
CCRF-CEM
  inhibition of growth at 10 µM: < 10%
BT-549
  inhibition of growth at 10 µM: < 10%
PC-3
  inhibition of growth at 10 µM: < 10%
SNB-75
  inhibition of growth at 10 µM: < 10%
COLO 205
  inhibition of growth at 10 µM: < 10%
UACC-62
  inhibition of growth at 10 µM: < 10%
OVCAR-5
  inhibition of growth at 10 µM: < 10%
MDA-MB-435
  inhibition of growth at 10 µM: < 10%
MCF7
  inhibition of growth at 10 µM: < 10%
HOP-62
  inhibition of growth at 10 µM: < 10%
RPMI-8226
  inhibition of growth at 10 µM: < 10%
MDA-MB-468
  inhibition of growth at 10 µM: < 10%
NCI-H460
  inhibition of growth at 10 µM: < 10%
SK-MEL-5
  inhibition of growth at 10 µM: < 10%
T47D
  inhibition of growth at 10 µM: < 10%
NCI-H522
  inhibition of growth at 10 µM: < 10%
HCT-15
  inhibition of growth at 10 µM: < 10%
786-0
  inhibition of growth at 10 µM: < 10%
OVCAR-3
  inhibition of growth at 10 µM: < 10%
SF-539
  inhibition of growth at 10 µM: < 10%
SF-295
  inhibition of growth at 10 µM: < 10%
